In patent US20140213538A1, “LYSOPHOSPHATIDIC ACID RECEPTOR ANTAGONISTS” (InterMune, Inc., priority 2013, published 2014):

Tests used:
Assay type in all cases: cell-based
LPA/S1P GPCR of interest = target: T1, LPA/S1P GPCR of interest (Homo sapiens, UniProt Q92633); experiment: Beta-Arrestin based assay (PathHunter)
T1 construct: host or cells: CHO
Procedure, shortened: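 EA Parental CHO cells (DiscoverX) were transfected with FuGENE (Roche) using CMV promoter-driven DNA constructs encoding the LPA/S1P GPCR of interest fused to a ProLink tag. Beta-arrestin recruitment in agonist mode was assessed 24-48 hrs later with PathHunter kits. Tests ran in quadruplicate in white 384 well plates, and end point luminescence was fit to a 4 parameter logistic function.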

LPA1 [1] = target: T2, LPA1 (Homo sapiens, UniProt Q92633); experiment: LPA1 Migration Assay (Oris); parameters: host or cells: primary fibroblasts (lung, dermal), HFL-1, 3T3 and CHO cells expressing LPA1R; settings: read-out: Cell Migration EC50
Procedure, shortened: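 Antagonist inhibition was derived by 4-parameter logistic fitting of migrated-cell counts against compound concentration. Dye-loaded, 12-24 h serum-starved fibroblasts, HFL-1, 3T3 or CHO cells expressing LPA1R moved into an Oris detection zone in response to LPA or serum, then were fixed and counted on a high-content reader.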

LPA1 [2] = target: T2, LPA1; experiment: Ca Flux LPA1 assay; parameters: the full-length cDNA for human LPA1 is obtained by PCR of the reverse transcription reaction; expressed in transfected cells

T2 sequence (Q92633 whole entry): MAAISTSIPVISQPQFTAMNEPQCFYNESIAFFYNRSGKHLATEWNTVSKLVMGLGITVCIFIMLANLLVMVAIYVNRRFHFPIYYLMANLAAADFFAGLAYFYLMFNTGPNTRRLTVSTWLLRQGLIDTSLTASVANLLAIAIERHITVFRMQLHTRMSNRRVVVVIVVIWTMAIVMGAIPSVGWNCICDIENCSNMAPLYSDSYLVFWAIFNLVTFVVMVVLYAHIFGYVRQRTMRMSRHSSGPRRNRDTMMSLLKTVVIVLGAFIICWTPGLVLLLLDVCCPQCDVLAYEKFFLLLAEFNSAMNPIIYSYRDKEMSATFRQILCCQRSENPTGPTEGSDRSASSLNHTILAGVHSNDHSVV
T1 sequence (Q92633 whole entry): as above

Compound	EC50 (LPA/S1P GPCR of interest)	EC50 (LPA1 [1])	IC50 (LPA1 [2])
COC(=O)C1(c2cc3sc(C#Cc4cnn(C)c4NC(=O)O[C@H](C)c4ccccc4)cc3s2)CC1 [IT479]	< 50 nM	> 500 nM	50 to 500 nM
Cc1noc(-c2ccc(-c3ccc(Oc4c(F)cccc4C(=O)O)c(F)c3)cc2)c1NC(=O)O[C@H](C)c1ccccc1 [IT374]	< 50 nM	50 to 500 nM	50 to 500 nM
Cc1noc(-c2ccc(-c3ccc(C4(C(=O)O)CC(F)(F)C4)cc3)cc2)c1NC(=O)O[C@H](C)c1ccccc1 [IT136]	< 50 nM	50 to 500 nM	50 to 500 nM
Cc1noc(-c2ccc(-c3ccc(Oc4cccnc4C(=O)O)c(F)c3)cc2)c1NC(=O)O[C@H](C)c1ccccc1 [IT424]	< 50 nM	< 50 nM	< 50 nM
Cc1noc(-c2ccc(-c3ccc(C(F)(F)C(=O)O)cc3)cc2)c1NC(=O)O[C@H](C)c1ccccc1 [IT123]	< 50 nM	50 to 500 nM	50 to 500 nM
Cc1noc(-c2ccc(-c3ccc(C4(C(=O)O)CC4(F)F)cc3)cc2)c1NC(=O)O[C@H](C)c1ccccc1 (stereo partly drawn) [IT172]	< 50 nM	< 50 nM	50 to 500 nM
Cc1noc(-c2ccc(NC(=O)c3coc(C4(C(=O)O)CC4)c3)cc2)c1NC(=O)O[C@H](C)c1ccccc1 [IT224]	< 50 nM	< 50 nM	< 50 nM
Cc1noc(-c2ccc(-c3ccc(Oc4c(C(=O)O)n[nH]c4C)cc3)cc2)c1NC(=O)O[C@H](C)c1ccccc1 [IT485]	< 50 nM	< 50 nM	50 to 500 nM
Cc1noc(-c2ccc(-c3cc(F)c(Oc4ccccc4C(=O)O)c(F)c3)cc2)c1NC(=O)O[C@H](C)c1ccccc1 [IT316]	< 50 nM	< 50 nM	50 to 500 nM
Cc1noc(-c2ccc(-c3cc(F)c(C4(C(=O)O)CC4)c(F)c3)cc2)c1NC(=O)O[C@H](C)c1ccccc1 [IT234]	< 50 nM	< 50 nM	< 50 nM
C[C@@H](OC(=O)Nc1c(-c2ccc(-c3cc(F)c(Oc4ncccc4C(=O)O)c(F)c3)cc2)nnn1C)c1ccccc1 [IT306]	< 50 nM	< 50 nM	< 50 nM
Cc1noc(-c2ccc(-c3cc(F)c(Oc4ncccc4C(=O)O)c(F)c3)cc2)c1NC(=O)O[C@H](C)c1ccccc1 [IT258]	< 50 nM	< 50 nM	< 50 nM
Cc1noc(-c2ccc(-c3ccc(Oc4ncccc4C(=O)O)cc3)cc2)c1NC(=O)O[C@H](C)c1ccccc1 [IT199]	< 50 nM	< 50 nM	< 50 nM
Cc1noc(-c2ccc(-c3ccc(OC4(C(=O)O)CC4)cc3)cc2)c1NC(=O)O[C@H](C)c1ccccc1 [IT197]	< 50 nM	< 50 nM	< 50 nM
C[C@@H](OC(=O)Nc1sncc1C#Cc1cc2sc(C3(C(=O)O)CC3)cc2s1)c1ccccc1 [IT108]	> 500 nM	> 500 nM	> 500 nM
C[C@@H](OC(=O)Nc1ocnc1C#Cc1cc2sc(C3(C(=O)O)CC3)cc2s1)c1ccccc1 [IT125]	> 500 nM	50 to 500 nM	< 50 nM
C[C@@H](OC(=O)Nc1c(-c2ccc(-c3ccc(Oc4ccccc4C(=O)O)cc3)cc2)nnn1C)c1ccccc1 [IT309]	< 50 nM	< 50 nM	< 50 nM
C[C@@H](OC(=O)Nc1c(-c2ccc(-c3cc(F)c(Oc4cccnc4C(=O)O)c(F)c3)cc2)nnn1C)c1ccccc1 [IT452]	< 50 nM	< 50 nM	< 50 nM
Cc1noc(-c2ccc(-c3ccc(Oc4ccncc4C(=O)O)c(F)c3)cc2)c1NC(=O)O[C@H](C)c1ccccc1 [IT423]	< 50 nM	50 to 500 nM	< 50 nM
C[C@@H](OC(=O)Nc1c(-c2cc3sc(-c4cc(F)c(C5(C(=O)O)CC5)c(F)c4)cc3s2)cnn1C)c1ccccc1 [IT261]	< 50 nM	50 to 500 nM	> 500 nM
Cc1noc(-c2cc(F)c(-c3cc(F)c(Oc4ncccc4C(=O)O)c(F)c3)cc2F)c1NC(=O)O[C@H](C)c1ccccc1 [IT474]	< 50 nM	< 50 nM	< 50 nM
C[C@@H](OC(=O)Nc1c(-c2ccc(-c3ccc(Oc4ccccc4C(=O)O)c(F)c3)cc2)nnn1C)c1ccccc1 [IT447]	< 50 nM	< 50 nM	< 50 nM
C[C@@H](OC(=O)Nc1c(-c2cc(F)c(-c3cc4sc(C5(C(=O)O)CC5)cc4s3)cc2F)cnn1C)c1ccccc1 [IT121]	< 50 nM	< 50 nM	> 500 nM
Cc1nnn(-c2ccc(-c3cc(F)c(Oc4ccccc4C(=O)O)c(F)c3)cc2)c1NC(=O)O[C@H](C)c1ccccc1 [IT408]	< 50 nM	< 50 nM	< 50 nM

Compound	EC50 (LPA/S1P GPCR of interest)	EC50 (LPA1 [1])	IC50 (LPA1 [2])
CCn1ncc(-c2ccc(-c3cc(F)c(Oc4ncccc4C(=O)O)c(F)c3)cc2)c1NC(=O)O[C@H](C)c1ccccc1 [IT489]	< 50 nM	< 50 nM	50 to 500 nM
Cc1noc(-c2ccc(-c3ccc(Oc4c(F)cccc4C(=O)O)cc3)cc2)c1NC(=O)O[C@H](C)c1ccccc1 [IT375]	< 50 nM	50 to 500 nM	50 to 500 nM
Cc1onc(-c2cc(F)c(-c3cc4sc(C5(C(=O)O)CC5)cc4s3)cc2F)c1NC(=O)O[C@H](C)c1ccccc1 [IT255]	< 50 nM	50 to 500 nM	50 to 500 nM
C[C@@H](OC(=O)Nc1c(-c2ccc(-c3ccc(Oc4ccccc4C(=O)O)c(F)c3)cc2)cnn1C)c1ccccc1 [IT446]	< 50 nM	< 50 nM	< 50 nM
Cc1noc(-c2ccc(-c3cc(F)c(OC4(C(=O)O)CC4)c(F)c3)cc2)c1NC(=O)O[C@H](C)c1ccccc1 [IT304]	< 50 nM	50 to 500 nM	< 50 nM
Cc1noc(-c2ccc(-c3ccc(Oc4ccncc4C(=O)O)cc3)cc2)c1NC(=O)O[C@H](C)c1ccccc1 [IT227]	< 50 nM	< 50 nM	< 50 nM
C[C@@H](OC(=O)Nc1c(-c2ccc(-c3cc(F)c(Oc4ncccc4C(=O)O)c(F)c3)cc2)cnn1C)c1ccccc1Cl [IT450]	< 50 nM	< 50 nM	50 to 500 nM
C[C@@H](OC(=O)Nc1c(-c2ccc(-c3cc(F)c(Oc4ccncc4C(=O)O)c(F)c3)cc2)cnn1C)c1ccccc1 [IT438]	< 50 nM	50 to 500 nM	50 to 500 nM
Cc1noc(-c2ccc(-c3ccc(S(C)(=O)=O)cc3)cc2)c1NC(=O)O[C@H](C)c1ccccc1 [IT124]	> 500 nM	50 to 500 nM	> 500 nM
C[C@@H](OC(=O)Nc1c(C#Cc2cc(F)c(Oc3ncccc3C(=O)O)c(F)c2)cnn1C)c1ccccc1 [IT303]	50 to 500 nM	50 to 500 nM	< 50 nM
Cc1noc(-c2ccc(-c3ccc(OC(C)(C)C(=O)O)cc3)cc2)c1NC(=O)O[C@H](C)c1ccccc1 [IT226]	< 50 nM	< 50 nM	< 50 nM
Cc1noc(-c2ccc(-c3ccc(Oc4cccnc4C(=O)O)cc3)cc2)c1NC(=O)O[C@H](C)c1ccccc1 [IT229]	< 50 nM	50 to 500 nM	50 to 500 nM
Cc1noc(-c2ccc(-c3cc(F)c(Oc4nc5ccccc5cc4C(=O)O)c(F)c3)cc2)c1NC(=O)O[C@H](C)c1ccccc1 [IT481]	< 50 nM	< 50 nM	> 500 nM
C[C@@H](OC(=O)Nc1ccncc1C#Cc1cc2sc(C3(C(=O)O)CC3)cc2s1)c1ccccc1 [IT106]	50 to 500 nM	> 500 nM	< 50 nM
Cc1noc(-c2ccc(-c3cc(F)c(Oc4ccncc4C(=O)O)c(F)c3)cc2)c1NC(=O)O[C@H](C)c1ccccc1 [IT300]	< 50 nM	< 50 nM	< 50 nM
C[C@@H](OC(=O)Nc1c(-c2ccc(-c3ccc(C4(C(=O)OC5OC(C(=O)O)C(O)C(O)C5O)CC4)cc3)cc2)cnn1C)c1ccccc1 (stereo partly drawn) [IT105]	50 to 500 nM	50 to 500 nM	50 to 500 nM
C[C@@H](OC(=O)Nc1c(C#Cc2cc3sc(C4(c5nn[nH]n5)CC4)cc3s2)cnn1C)c1ccccc1 [IT104]	< 50 nM	50 to 500 nM	< 50 nM
Cc1noc(-c2ccc(-c3cc(F)c(Oc4ccccc4C(=O)O)c(F)c3)cc2)c1NC(=O)O[C@H](C)c1ccccc1Cl [IT449]	< 50 nM	< 50 nM	> 500 nM
Cn1ncc(C#Cc2cc3sc(C4(C(=O)O)CC4)cc3s2)c1NC(=O)O[C@@H](c1ccccc1)C(F)(F)F [IT114]	< 50 nM	< 50 nM	50 to 500 nM
Cc1nnn(-c2ccc(-c3cc(F)c(Oc4ncccc4C(=O)O)c(F)c3)cc2)c1NC(=O)O[C@H](C)c1ccccc1 [IT307]	< 50 nM	50 to 500 nM	< 50 nM
Cc1noc(-c2ccc(-c3ccc(C4(C(=O)O)CCC4)cc3)cc2)c1NC(=O)O[C@H](C)c1ccccc1 [IT235]	< 50 nM	< 50 nM	50 to 500 nM
Cc1nnn(-c2cc(F)c(-c3ccc(C4(C(=O)O)CCOCC4)cc3)cc2F)c1NC(=O)O[C@H](C)c1ccccc1 [IT030]	> 500 nM	> 500 nM	> 500 nM
C[C@@H](OC(=O)Nc1c(-c2cc3sc(-c4cc(F)c(C5(C(=O)O)CC5)c(F)c4)cc3s2)nnn1C)c1ccccc1 [IT262]	< 50 nM	50 to 500 nM	50 to 500 nM
